Assay results as given in US9198886B2, “Use of 2,5-dihydroxybenzene for the treatment of ocular diseases” (priority 2006, dated 2015).

Legend:
[1] = target: fibroblast growth factor-1 (FGF-1) (Homo sapiens, UniProt P05230); assay: Co-crystal structure with fibroblast growth factor-1; type: binding
Text: (§1) FIG. 24. 2-acetoxy-5-hydroxybenzenesulfonic acid co-crystallized with fibroblast growth factor-1. […] The compound occupies a place that is very close to that described occupied by 2,5-dihydroxybenzenesulfonic acid, the aromatic ring of which forms a cation-π bond with the N^ε group of lysine 132, which is marked in panel A as reference. […] In panels A and B, the protein surface is colored according to its electrostatic potential (light grey: negative charge; dark grey: positive charge; white: lack of charge).
as §1, with “25. 5-acetoxy-2-hydroxybenzenesulfonic” for “24. 2-acetoxy-5-hydroxybenzenesulfonic”
as §1, with “26. 2,5-diacetoxybenzenesulfonic” for “24. 2-acetoxy-5-hydroxybenzenesulfonic”
Based on the crystal diffraction of the FGF-1:2-acetoxy-5-hydroxybenzene sulfonic acid, FGF-1:5-acetoxy-2-hydroxybenzene sulfonic acid and FGF-1:2,5-diacetoxybenzene sulfonic acid complexes, the structures of the complexes were calculated and represented. FIGS. 24, 25 and 26, which show the surface of the dyed protein according to its electrostatic potential (light grey: negative charge; dark grey: positive charge; white: lack of charge), show the manner in which 2-acetoxy-5-hydroxybenzene sulfonic acid, 5-acetoxy-2-hydroxybenzene sulfonic acid and 2,5-diacetoxybenzene sulfonic acid interact, respectively, with FGF-1.

infantile hemangioma = assay: Topical cream in a child with infantile hemangioma; type: in vivo, human; conditions: cream 2.5%, topical twice a day, 1, 2 and 3 months, one child
Text: Photographs of a child showing the effects of the topical treatment with a cream comprising 2,5-dihydroxybenzenesulfonic (DHBS) (2.5%) in a baby suffering infantile hemangioma.
The cream comprising 2,5-dihydroxybenzene sulfonic (2.5%) was topically applied twice a day for 3 months on the face of a child suffering from infantile hemangioma.

Nakagawa angioblastoma = assay: Topical cream in a child with Nakagawa angioblastoma (hemangioblastoma); type: in vivo, human; conditions: cream 2.5%, topical twice a day, 1 month, one child
Text: Photographs showing the effects of a topical treatment with a cream comprising 2,5-dihydroxybenzenesulfonic (DHBS) in a child suffering from Nakagawa angioblastoma.
The cream comprising 2,5-dihydroxybenzene sulfonic (2.5%) was topically applied twice a day during 1 month on the face of the child suffering from Nakagawa angioblastoma.

pterygium = assay: Topical solution in a patient with unilateral pterygium; type: in vivo, human; conditions: 2.5% solution, one drop four times per day, two weeks
Text: FIG. 3. […] The treatment consists of the application of 4 drops of said solution daily, for two weeks.
The solution was applied topically to a patient suffering from unilateral pterygium, as one drop four times per day.

[2] = test system: angiogenesis induced by Helicobacter pylori in the human gastric mucosa; assay: Gastric mucosa biopsy in a patient chronically infected with Helicobacter pylori; type: in vivo; conditions: 500 mg/day oral, one week
Description: FIG. 5. Helicobacter pylori • A) Hematoxylin-eosin staining of the gastric mucosa of a sample obtained from a patient infected with Helicobacter pylori before treatment. The arrows and the asterisk indicate the formation of neovessels in the mucosa protruding the gastric lumen through the lost epithelial layer. • B) Hematoxylin-eosin staining of the gastric mucosa of a sample obtained from the same patient infected with Helicobacter pylori after administering 500 mg of 2,5-dihydroxybenzenesulfonate (DHBS) daily for a week.
A biopsy of the gastric mucosa was performed in a patient chronically infected with Helicobacter pylori before the oral treatment with 2,5-dihydroxybenzene sulfonic acid (Dobesilate) (500 mg/day). After a week of treatment, another biopsy was performed in the patient. Both biopsies were evaluated using hematoxylin-eosin staining. […] Microscopically, the arrows and the asterisk indicate the formation of neovessels in the mucosa protruding the gastric lumen through the lost epithelial layer. […] This example illustrates that the use of DHBS is beneficial in the treatment of gastritis and angiogenesis caused by the infection with Helicobacter pylori.

skeletal muscle lesions = assay: Oral treatment of patients with skeletal muscle and tendon lesions (MRI, function); type: in vivo, human
Description: The capacity of a 2,5-dihydroxybenzene derivative, the 2,5-dihydroxybenzene sulfonic acid (DHBS) to effectively treat skeletal muscle lesions is shown herein. The efficacy is evident, not only in the images of conventional diagnosis that show the recovery of the muscular damage, but also there is a clear functional recovery of the affected limb.
The first patient's left quadriceps was broken by practicing sports. […] At that moment, the patient starts a daily oral treatment with 500 mg of 2,5-dihydroxybenzene sulfonic acid (DHBS) for two weeks. […] An observation that may be applied to the other cases that support this example.
Other patient has an hematoma and muscular breaking of the brachial biceps, as shown in the magnetic resonance image (MRI) of FIG. 12A. The hematoma can be appreciated externally (FIG. 13A) and the lesion, produced by professional practice (dancing) the day before the consultation, limits the elbow flexion (FIG. 13B) and extension (FIG. 13C).

[3] = patient with brachial biceps breaking, 1500 mg/day p.o., 20 days
[4] = patient with broken left quadriceps, 500 mg/day p.o., two weeks

Sequence of fibroblast growth factor-1 (FGF-1) (P05230 whole entry, species assumed): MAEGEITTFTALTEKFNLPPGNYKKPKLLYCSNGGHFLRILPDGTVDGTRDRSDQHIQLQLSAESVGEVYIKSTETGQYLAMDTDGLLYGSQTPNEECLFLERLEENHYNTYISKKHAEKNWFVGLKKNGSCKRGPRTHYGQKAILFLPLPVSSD

| Compound | binding site on FGF-1 ([1]; crystal diffraction of the complex) | acetoxyl groups of the compound when bound to FGF-1 ([1]; crystal diffraction, electron density contoured at 1σ) | appearance of the hemangioma lesion (infantile hemangioma) | coloration of the hemangioblastoma lesion (Nakagawa angioblastoma) | pterygium appearance (pterygium) | angiogenic activity in gastric mucosa [2] | epithelial membrane of gastric mucosa [2] | gastric mucosa symptoms of congestion and erythema [2] | MRI tendon lesion (skeletal muscle lesions; patient with Achilles tendon breaking, 1500 mg/day p.o., two months) | MRI size of lesion and hematoma (skeletal muscle lesions; [3]) | elbow function (skeletal muscle lesions; [3]) | MRI of quadriceps lesion and hematoma (skeletal muscle lesions; [4]) | functional recovery of the leg (skeletal muscle lesions; [4]) | time to functional recovery and resolution vs conventional treatments (antiinflammatories) (skeletal muscle lesions; [4]) | MRI muscular lesion (skeletal muscle lesions; patient with semitendinous muscle lesion, 1500 mg/day p.o., 11 days) |
| --- | --- | --- | --- | --- | --- | --- | --- | --- | --- | --- | --- | --- | --- | --- | --- |
| CC(=O)Oc1ccc(OC(C)=O)c(S(=O)(=O)[O-])c1.[K+] [DABS, potassium 2,5-diacetoxybenzene sulfonate] | very close to the one that has been described occupied by 2,5-dihydroxybenzene sulfonic acid | conserve the acetoxyl groups | – | – | – | – | – | – | – | – | – | – | – | – | – |
| O=S(=O)(O)c1cc(O)ccc1O [DHBS, 2,5-dihydroxybenzene sulfonic acid] | – | – | substantial recovery of the lesion | reduction in the intensity of the reddish coloration | partial reversal of the pterygium | less angiogenic activity | apparently normal | symptoms of congestion and erythema disappear | marked reduction of said lesion | markedly reduces the size of the lesion and of the hematoma | recovers the functionality of the elbow flexion and extension | the hematoma can no longer be observed | able to extend the left leg almost completely | shorter period than the one required in the case of conventional treatments | reduced the muscular lesion |
